Laboratory results reported in patent US8158635B2, “Solid forms comprising 4-[9-(tetrahydro-furan-3-yl)-8-(2,4,6-trifluoro-phenylamino)-9H-purin-2-ylamino]-cyclohexan-1-ol, compositions thereof, and uses therewith” (Signal Pharmaceuticals, LLC, priority 2006, dated 2012).

Test: Moisture sorption analysis (Dynamic Vapor Sorption)
Assay type: physicochemical
Method: In certain embodiments, Form A of the free base of Compound I is stable during drying at temperatures up to about 40-45° C. In certain embodiments, the crystallization and/or recrystallization of Form A of the free base of Compound I provides an effective means of purification by removing or reducing the levels of chemical impurities (such as, e.g., one or more of the chemical compounds provided in FIG. 14) in the resulting material. In certain embodiments, Form A of the free base of Compound I is substantially pure. […] In certain embodiments, Form A of the free base of Compound I is stable upon compression.
Hygroscopicity (moisture sorption desorption) was determined by Dynamic Vapor Sorption (DVS). A solid sample comprising Compound I ranging from 10 to 50 mg was placed into the DVS instrument at 0% relative humidity (RH). The RH was increased from 0% to 80% or 95%. The RH was then decreased in a similar manner to accomplish a full sorption desorption cycle.

O[C@H]1CC[C@H](Nc2ncc3nc(Nc4c(F)cc(F)cc4F)n([C@H]4CCOC4)c3n2)CC1 (stereo in doubt) [Form A of the Free Base of Compound I, 4-[9-(tetrahydro-furan-3-yl)-8-(2,4,6-trifluoro-phenylamino)-9H-purin-2-ylamino]-cyclohexan-1-ol]
XRPD pattern following moisture sorption analysis (after sorption/desorption cycle): substantially unchanged | mass gain in moisture sorption analysis (increased from about 0% to about 80% RH): about 0.5% | mass gain in moisture sorption analysis (increased from about 0% to about 95% RH): about 1.4%
